According to patent publication US6787341B2, “Pharmacological targeting of bacterial DNA ligase for treatment and prevention of bacterial infections” (priority 2001, dated 2004):

Columns and labels:
Type in all cases: biochemical, Amsacta moorei entomopoxvirus
AmEPV ligase [1] = molecular target: T1, AmEPV ligase (Betaentomopoxvirus amoorei, UniProt Q9EMK7); test: Nucleotide cofactor specificity of AmEPV ligase in nick ligation
Experimental: Reaction mixtures (20 μl) containing 50 mM Tris-HCl (pH 7.5), 10 mM (NH4)2SO4, 5 mM DTT, 5 mM MgCl2, 1 pmol of ^32P-labeled nicked DNA, 32 ng of AmEPV ligase, and 50 μM of the indicated nucleotide were incubated for 30 min at 22° C. A control reaction contained no added nucleotide cofactor (none). The reaction products were resolved by polyacrylamide gel electrophoresis. An autoradiogram of the gel is shown.
A low level of nick ligation could be detected in the absence of added nucleotide (FIG. 6). Cofactor-independent ligation was attributed to pre-adenylated ligase in the enzyme preparation. […] Inclusion of NAD^+ in the reaction mixture stimulated nick ligation such that ˜90% of the input substrate molecules were sealed (FIG. 6). […] Indeed, none of the standard rNTPs or dNTPs were able to satisfy the requirement of AmEPV ligase for a high energy cofactor (FIG. 6). […] A Km of 9 μM NAD^+ was calculated from a double-reciprocal plot of the data.

AmEPV ligase [2] = molecular target: T1, AmEPV ligase; details: for support of ligase activity as divalent cation: 5 mM
AmEPV ligase [3] = molecular target: T1, AmEPV ligase; test: Step 3 phosphodiester formation at a pre-adenylated nick by AmEPV ligase; details: 50 μM NAD+
Experimental: Truncated derivatives of AmEPV ligase deleted for motif Ia (NΔ70) or for the OB and HhH domains (CΔ216) were purified by Ni-agarose and phosphocellulose column cheomtography. FIG. 8A: Aliquots (3 μg) of full-sized AmEPV ligase (WT), NΔ70, and CΔ216 were analyzed by SDS-PAGE. A Coomassie blue-stained gel is shown. The positions and sizes (in kDa) of marker proteins are indicated on the left. FIG. 8B: Ligase adenylation reaction mixtures (20 μl) containing 50 mM Tris-HCl (pH 7.5), 5 mM DTT, 5 mM MgCl2, 1 μM [α-^32P]NAD^+ and 8 pmol of WT AmEPV ligase, NΔ70, or CΔ216 were incubated for 15 min at 22° C. The reaction products were resolved by SDS-PAGE and visualized by autoradiography. The positions and sizes (in kDa) of marker proteins are indicated on the right. FIG. 8C: Ligation of nicked DNA and nicked DNA-adenylate. Reaction mixtures (20 μl) containing 50 mM Tris-HCl (pH 7.5), 10 mM (NH4)2SO4, 5 mM DTT, 5 mM MgCl2, either 200 fmol of ^32P-labeled nicked DNA (pDNA) plus 50 μM NAD^+ or 200 fmol ^32P-labeled nicked DNA-adenylate (AppDNA) and no NAD^+, and 2 pmol of WT AmEPV ligase, NΔ70, or CΔ216 were incubated for 30 min at 22° C. The reaction products were resolved by denaturing PAGE. […]
FIG. 9A: Kinetic analysis of step 3. […] The mixtures were adjusted to 5% glycerol and then analyzed by electrophoresis through a 5% native polyacrylamide gel containing 90 mM Tris-borate, 2.5 mM EDTA. […]

## Nc1ncnc2c1ncn2[C@@H]1O[C@H](COP(=O)(O)OP(=O)(O)OP(=O)(O)O)[C@@H](O)[C@H]1O [ATP]
AmEPV ligase [1]; 50 μM nucleotide
  stimulation of nick ligation as high energy cofactor: failed to stimulate

## [Mn+2] [Manganese]
AmEPV ligase [2]
  support of ligase activity as divalent cation: active, albeit less than magnesium

## NC(=O)c1ccc[n+]([C@@H]2O[C@H](COP(=O)([O-])OP(=O)(O)OC[C@H]3O[C@@H](n4cnc5c(N)ncnc54)[C@H](OP(=O)(O)O)[C@@H]3O)[C@@H](O)[C@H]2O)c1 [NADP]
AmEPV ligase [1]; 50 μM nucleotide
  stimulation of nick ligation as high energy cofactor: inactive

## NC(=O)c1ccc[n+]([C@@H]2O[C@H](COP(=O)([O-])OP(=O)(O)OC[C@H]3O[C@@H](n4cnc5c(N)ncnc54)[C@H](O)[C@@H]3O)[C@@H](O)[C@H]2O)c1 [NAD^+]
AmEPV ligase [1]; 50 μM nucleotide
  input substrate molecules sealed with nucleotide included: ~90%
AmEPV ligase [1]; sub-saturating enzyme
  NAD+ concentration at which nick joining activity plateaued: 50 to 100 µM
AmEPV ligase [3]; NΔ70
  effect on step 3 catalysis by NΔ70: no effect whatsoever
AmEPV ligase [3]; wild-type AmEPV ligase
  decrement in extent of step 3 ligation by wild-type ligase: 5 fold

## [Ca+2] [calcium]
AmEPV ligase [2]
  support of ligase activity as divalent cation: did not support ligase activity

## [Co+2] [cobalt]
AmEPV ligase [2]
  support of ligase activity as divalent cation: active, albeit less than magnesium

## [Cu+2] [cooper]
AmEPV ligase [2]
  support of ligase activity as divalent cation: did not support ligase activity

## [Mg+2] [magnesium]
AmEPV ligase [2]
  optimal divalent cation concentration for nick joining: 5 mM

## [Zn+2] [zinc]
AmEPV ligase [2]
  support of ligase activity as divalent cation: did not support ligase activity
